Experimental data reported in BindingDB's records for doi:10.1021/jm960509y (Abbott Laboratories, 1997).
*1 amine or outer side, *2 acyl side, *3 side chain or, on linkers, in order; H or OH if unused. Where a SMILES comes first, the peptide text is derived from it. Side-chain parts run from the residue outwards. [ ]: non-standard residue; d: D form. The star is where a group is joined. ξ: configuration not given here. NH(4-MeO-phenyl) = COc1ccc(N*)cc1; ξW = NC(Cc1c[nH]c2ccccc12)C(=O)O; pNA = O=[N+]([O-])c1ccc(N*)cc1; X2 = O=[N+]([O-])c1cccc(N*)c1; NH(3-MeOPh) = COc1cccc(N*)c1; 3Abz = Nc1cccc(C(=O)O)c1; ξF = NC(Cc1ccccc1)C(=O)O; X1 = CC(=O)c1ccc(N*)cc1; ξD = NC(CC(=O)O)C(=O)O; Boc = CC(C)(C)OC(=O)*; CO = O=C([*:1])[*:2]

Experiments:
[1] = target: Gastrin/cholecystokinin type B receptor (Cavia porcellus); test: Displacement of [125I]- BH-CCK-8 from Cholecystokinin type B receptor of guinea pig cortex
[2] = target: Gastrin/cholecystokinin type B receptor (Cavia porcellus); test: Inhibitory activity against Cholecystokinin type B receptor using [125I]- BH-CCK-8 as radioligand in cortex tissue of guinea pig

SMILES | IC50 [1] | IC50 [2]
COC(=O)c1cccc(NC(=O)NCCCC[C@H](NC(=O)C(Cc2c[nH]c3ccccc23)NC(=O)OC(C)(C)C)C(=O)NC(CC(=O)O)C(=O)NC(Cc2ccccc2)C(N)=O)c1 (some centres not stated) (Boc-[ξW]K([CO-3Abz-OMe])[ξD][ξF]-NH2) | 1000 nM | –
CSCCC(NC(=O)NC(CC(=O)O)C(=O)NC(Cc1ccccc1)C(N)=O)C(=O)NC(=O)C(Cc1c[nH]c2ccccc12)NC(=O)OC(C)(C)C (configuration not stated) [3-(3-{1-[2-tert-Butoxycarbonylamino-3-(1H-indol-3-yl)-propionylcarbamoyl]-3-methylsulfanyl-propyl}-ureido)-N-(1-carbamoyl-2-phenyl-ethyl)-succinamic acid] | – | 25 nM
COc1cccc(NC(=O)NCCCC[C@H](NC(=O)C(Cc2c[nH]c3ccccc23)NC(=O)OC(C)(C)C)C(=O)NC(CC(=O)O)C(=O)NC(Cc2ccccc2)C(N)=O)c1 (stereo partly drawn) [3-{(S)-2-[2-tert-Butoxycarbonylamino-3-(1H-indol-3-yl)-propionylamino]-6-[3-(3-methoxy-phenyl)-ureido]-hexanoylamino}-N-(1-carbamoyl-2-phenyl-ethyl)-succinamic acid] (Boc-[ξW]K([CO-NH(3-MeOPh)])[ξD][ξF]-NH2) | 1400 nM | –
CC(C)(C)OC(=O)N[C@@H](Cc1c[nH]c2ccccc12)C(=O)N[C@@H](CCCCNC(=O)Nc1cccc([N+](=O)[O-])c1)C(=O)N[C@@H](CC(=O)O)C(=O)N[C@@H](Cc1ccccc1)C(N)=O [3-{(S)-2-[2-tert-Butoxycarbonylamino-3-(1H-indol-3-yl)-propionylamino]-6-[3-(3-nitro-phenyl)-ureido]-hexanoylamino}-N-(1-carbamoyl-2-phenyl-ethyl)-succinamic acid] (Boc-WK([CO-X2])DF-NH2) | 1200 nM | –
COc1ccc(NC(=O)NCCCC[C@H](NC(=O)C(Cc2c[nH]c3ccccc23)NC(=O)OC(C)(C)C)C(=O)NC(CC(=O)O)C(=O)NC(Cc2ccccc2)C(N)=O)cc1 (stereo partly drawn) [3-{(S)-2-[2-tert-Butoxycarbonylamino-3-(1H-indol-3-yl)-propionylamino]-6-[3-(4-methoxy-phenyl)-ureido]-hexanoylamino}-N-(1-carbamoyl-2-phenyl-ethyl)-succinamic acid] (Boc-[ξW]K([CO-NH(4-MeO-phenyl)])[ξD][ξF]-NH2) | 750 nM | –
CC(C)(C)OC(=O)NC(Cc1c[nH]c2ccccc12)C(=O)N[C@@H](CCCCNC(=O)Nc1ccc([N+](=O)[O-])cc1)C(=O)NC(CC(=O)O)C(=O)NC(Cc1ccccc1)C(N)=O (stereo partly drawn) [3-{(S)-2-[2-tert-Butoxycarbonylamino-3-(1H-indol-3-yl)-propionylamino]-6-[3-(4-nitro-phenyl)-ureido]-hexanoylamino}-N-(1-carbamoyl-2-phenyl-ethyl)-succinamic acid] (Boc-[ξW]K([CO-pNA])[ξD][ξF]-NH2) | 31 nM | –
CC(=O)c1ccc(NC(=O)NCCCC[C@H](NC(=O)C(Cc2c[nH]c3ccccc23)NC(=O)OC(C)(C)C)C(=O)NC(CC(=O)O)C(=O)NC(Cc2ccccc2)C(N)=O)cc1 (stereo partly drawn) [3-{(S)-6-[3-(4-Acetyl-phenyl)-ureido]-2-[2-tert-butoxycarbonylamino-3-(1H-indol-3-yl)-propionylamino]-hexanoylamino}-N-(1-carbamoyl-2-phenyl-ethyl)-succinamic acid] (Boc-[ξW]K([CO-X1])[ξD][ξF]-NH2) | 12 nM | –
